# Experimental data taken from ChEMBL document CHEMBL1201862, “PubChem BioAssay data set” (2004).
# The source made the active and inactive calls.
# Columns and labels:
# Bcl-2-related protein A1 [1] = target: T1, Bcl-2-related protein A1 (Mus musculus, UniProt Q07440); assay: Bfl-1 binding inhibitors, SAR follow-up, biochemical, fluorescence polarization (AID 1070)
# [2] = target: Glyceraldehyde-3-phosphate dehydrogenase (Homo sapiens, UniProt P04406)
# Bcl-2-related protein A1 [3] = target: T1, Bcl-2-related protein A1; assay: Bfl-1 inhibitors blocking BH3 peptide binding, confirmation, biochemical, TR-FRET, mouse Bfl-1 (AID 621);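 also: TR-FRET binding of GST-Bfl-1 to FITC-labelled Bid peptide via terbium antibody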
# Estrogen receptor = target: T2, Estrogen receptor (Homo sapiens, UniProt P03372);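 also: potency for inhibiting coactivator peptide recruitment to the receptor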
# T2 sequence (P03372 whole entry): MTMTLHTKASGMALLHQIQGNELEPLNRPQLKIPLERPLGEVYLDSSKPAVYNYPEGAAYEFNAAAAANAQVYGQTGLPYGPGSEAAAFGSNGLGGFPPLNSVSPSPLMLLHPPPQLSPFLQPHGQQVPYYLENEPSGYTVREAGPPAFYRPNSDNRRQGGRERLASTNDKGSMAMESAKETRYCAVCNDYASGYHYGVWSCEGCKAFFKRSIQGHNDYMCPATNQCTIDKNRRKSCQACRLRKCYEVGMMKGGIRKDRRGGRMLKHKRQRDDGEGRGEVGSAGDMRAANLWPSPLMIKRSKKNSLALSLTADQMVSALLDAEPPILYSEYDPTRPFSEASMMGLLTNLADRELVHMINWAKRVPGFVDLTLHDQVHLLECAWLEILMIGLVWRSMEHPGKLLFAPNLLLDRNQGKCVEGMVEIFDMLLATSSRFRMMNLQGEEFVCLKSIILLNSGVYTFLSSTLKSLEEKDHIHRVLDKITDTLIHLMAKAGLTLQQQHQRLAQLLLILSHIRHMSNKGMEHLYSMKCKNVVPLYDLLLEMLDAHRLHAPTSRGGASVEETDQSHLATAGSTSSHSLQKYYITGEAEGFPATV
# Estrogen receptor beta [4] = target: T3, Estrogen receptor beta (Homo sapiens, UniProt Q92731); assay: ERβ–SRC-3 coactivator interaction inhibitors, confirmation, orthogonal assay, biochemical, ELISA, streptavidin-HRP readout (AID 1060)
# Estrogen receptor beta [5] = target: T3, Estrogen receptor beta
# [6] = Luminescence Cell-Based Dose Confirmation HTS to Identify Inhibitors of Polyadenylation.; format: functional
# HEK293 [7] = assay: NOD1 signaling inhibitors, primary screen, cell-based, luminescence, uHTS (AID 1578); format: functional; conditions: Homo sapiens
# BJ [8] = assay: cytotoxicity toward BJ-TERT fibroblasts, dose response, cell-based, RAS-independent, luminescence (AID 1933); format: functional; conditions: Homo sapiens
# [9] = target: T4, Nucleotide-binding oligomerization domain-containing protein 1 (Homo sapiens, UniProt Q9Y239); assay: NOD1 signaling inhibitors, SAR follow-up, revised (AID 2333); format: functional
# T4 sequence (Q9Y239 whole entry): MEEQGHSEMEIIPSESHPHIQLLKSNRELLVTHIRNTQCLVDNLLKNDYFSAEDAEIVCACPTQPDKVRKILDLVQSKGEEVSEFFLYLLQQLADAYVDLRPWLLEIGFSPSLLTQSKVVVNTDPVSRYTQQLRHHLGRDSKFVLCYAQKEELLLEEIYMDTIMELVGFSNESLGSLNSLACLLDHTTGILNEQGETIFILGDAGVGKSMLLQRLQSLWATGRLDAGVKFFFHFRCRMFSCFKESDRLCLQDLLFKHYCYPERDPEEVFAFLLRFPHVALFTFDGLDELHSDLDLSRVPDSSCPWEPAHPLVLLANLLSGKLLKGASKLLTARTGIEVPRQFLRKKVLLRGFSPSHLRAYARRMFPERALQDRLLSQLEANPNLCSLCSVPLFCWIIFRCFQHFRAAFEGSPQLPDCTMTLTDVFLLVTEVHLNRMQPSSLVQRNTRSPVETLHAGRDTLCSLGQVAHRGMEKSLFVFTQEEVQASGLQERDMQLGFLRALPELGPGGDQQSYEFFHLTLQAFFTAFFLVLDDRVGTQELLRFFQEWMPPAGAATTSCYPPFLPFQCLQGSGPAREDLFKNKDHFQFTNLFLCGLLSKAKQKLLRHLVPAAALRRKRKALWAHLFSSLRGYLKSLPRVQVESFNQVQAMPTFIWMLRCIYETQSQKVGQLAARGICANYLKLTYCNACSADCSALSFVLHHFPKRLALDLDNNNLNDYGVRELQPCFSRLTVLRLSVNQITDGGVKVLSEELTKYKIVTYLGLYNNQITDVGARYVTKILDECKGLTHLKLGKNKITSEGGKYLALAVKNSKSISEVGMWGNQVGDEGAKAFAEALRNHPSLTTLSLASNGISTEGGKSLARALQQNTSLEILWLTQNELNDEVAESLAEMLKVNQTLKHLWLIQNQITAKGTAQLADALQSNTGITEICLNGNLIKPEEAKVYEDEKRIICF
# HEK293 [10] = assay: cells; conditions: Homo sapiens
# HEK293 [11] = assay: cells; format: functional, cell-based; conditions: Homo sapiens
# HEK293 [12] = assay: cells; format: functional, cell-based; conditions: Homo sapiens; remark: listed apart in the source
# Tumor necrosis factor = Tumor necrosis factor (Homo sapiens, UniProt P01375); assay: TNFa-triggered NF-kB activation inhibitors, SAR follow-up, cell-based, revised (AID 2337); format: functional
# Vero = assay: cells; format: functional; conditions: Chlorocebus sabaeus
# BJ [13] = assay: cytotoxicity toward BJ-TERT-LT-ST fibroblasts, dose response, cell-based, RAS-independent, luminescence (AID 1935); format: functional; conditions: Homo sapiens;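 also: BJ fibroblasts immortalized with TERT plus LT and ST oncogenes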
# [14] = cytotoxicity toward DRD oncogenic fibroblasts, dose response, cell-based, non-viral oncogenic, luminescence (AID 1934); format: functional; conditions: Homo sapiens
# HEK293 [15] = assay: NOD2 signaling inhibitors in MDP-stimulated cells, cell-based, uHTS, luminescence (AID 2001); format: functional; conditions: Homo sapiens
# [16] = Luminescent dose response cell-based high throughput screening assay for inhibitors of the Janus kinase 2 mutant JAK2V617F. [Related pubchem assays: 1446 (Primary screen.), 1521 (Confirmation assay.), 1486 (Counter screen.)]; format: functional
# BJ [17] = assay: cells; format: functional, cell-based; conditions: Homo sapiens, read-out: EC50
# BJ [18] = assay: cytotoxicity toward Ras-transformed BJeLR fibroblasts, dose response, cell-based, alamar blue fluorescence, cherrypicked samples (AID 2631); format: functional; conditions: Homo sapiens;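 also: confirmatory dose-response assay in RAS-dependent BJ fibroblasts engineered with TERT, LT and ST, with cytotoxicity read by fluorescence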
# Cytochrome P450 2C19 = Cytochrome P450 2C19 (Homo sapiens, UniProt P33261); assay: qHTS Assay for Inhibitors and Substrates of Cytochrome P450 2C19. [Related pubchem assays: 410 ]; format: ADME; conditions: read-out: Potency
# Cytochrome P450 2D6 = Cytochrome P450 2D6 (Homo sapiens, UniProt P10635); assay: qHTS Assay for Inhibitors and Substrates of Cytochrome P450 2D6. [Related pubchem assays: 410 ]; format: ADME; conditions: read-out: Potency
# Chain of Cytochrome P450 2D6 (P10635 whole entry): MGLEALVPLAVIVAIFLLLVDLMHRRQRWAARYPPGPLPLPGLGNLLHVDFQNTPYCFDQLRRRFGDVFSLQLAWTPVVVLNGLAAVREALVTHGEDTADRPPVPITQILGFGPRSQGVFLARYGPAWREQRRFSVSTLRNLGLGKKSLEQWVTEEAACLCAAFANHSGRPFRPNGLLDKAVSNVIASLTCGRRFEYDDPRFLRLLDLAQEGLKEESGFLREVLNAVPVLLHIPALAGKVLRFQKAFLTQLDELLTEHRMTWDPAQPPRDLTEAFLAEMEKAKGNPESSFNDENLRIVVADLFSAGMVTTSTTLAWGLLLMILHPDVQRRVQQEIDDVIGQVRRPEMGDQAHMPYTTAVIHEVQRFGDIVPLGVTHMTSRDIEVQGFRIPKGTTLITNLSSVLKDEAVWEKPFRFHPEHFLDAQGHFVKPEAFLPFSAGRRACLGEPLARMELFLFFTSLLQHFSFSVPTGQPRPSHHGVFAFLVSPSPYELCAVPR
# T1 sequence (Q07440 whole entry): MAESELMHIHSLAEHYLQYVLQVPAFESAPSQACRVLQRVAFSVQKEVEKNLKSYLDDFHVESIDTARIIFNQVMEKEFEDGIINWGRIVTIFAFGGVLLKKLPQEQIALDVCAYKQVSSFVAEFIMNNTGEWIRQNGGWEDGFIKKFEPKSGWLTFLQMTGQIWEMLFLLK
# T3 sequence (Q92731 whole entry): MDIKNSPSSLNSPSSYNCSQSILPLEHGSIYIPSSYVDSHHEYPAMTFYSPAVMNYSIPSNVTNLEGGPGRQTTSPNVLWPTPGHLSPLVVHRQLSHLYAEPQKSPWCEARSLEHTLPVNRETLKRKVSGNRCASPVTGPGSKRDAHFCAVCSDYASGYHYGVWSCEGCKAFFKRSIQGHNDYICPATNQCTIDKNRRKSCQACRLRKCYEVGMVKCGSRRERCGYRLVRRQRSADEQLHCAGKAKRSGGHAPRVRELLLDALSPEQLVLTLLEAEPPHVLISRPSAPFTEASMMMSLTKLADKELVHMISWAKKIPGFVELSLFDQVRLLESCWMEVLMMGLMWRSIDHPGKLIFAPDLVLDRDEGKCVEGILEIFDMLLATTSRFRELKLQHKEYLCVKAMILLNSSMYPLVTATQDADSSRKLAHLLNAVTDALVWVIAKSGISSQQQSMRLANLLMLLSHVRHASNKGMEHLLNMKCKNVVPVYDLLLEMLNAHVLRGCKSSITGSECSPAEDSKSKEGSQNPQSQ
# Chain of Cytochrome P450 2C19 (P33261 whole entry): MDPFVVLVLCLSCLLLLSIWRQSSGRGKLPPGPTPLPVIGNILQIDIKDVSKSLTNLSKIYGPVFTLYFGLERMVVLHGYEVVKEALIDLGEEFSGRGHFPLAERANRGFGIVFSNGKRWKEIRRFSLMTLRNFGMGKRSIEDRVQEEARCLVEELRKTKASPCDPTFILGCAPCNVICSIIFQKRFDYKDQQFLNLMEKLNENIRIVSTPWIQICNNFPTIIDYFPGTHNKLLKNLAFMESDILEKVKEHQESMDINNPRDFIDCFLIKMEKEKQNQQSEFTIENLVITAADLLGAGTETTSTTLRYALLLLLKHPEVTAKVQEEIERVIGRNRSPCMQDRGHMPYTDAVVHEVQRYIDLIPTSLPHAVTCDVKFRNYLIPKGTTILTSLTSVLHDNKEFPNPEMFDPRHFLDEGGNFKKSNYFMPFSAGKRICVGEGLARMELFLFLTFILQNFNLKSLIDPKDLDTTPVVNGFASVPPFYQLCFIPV
# Chain of Tumor necrosis factor (P01375 whole entry): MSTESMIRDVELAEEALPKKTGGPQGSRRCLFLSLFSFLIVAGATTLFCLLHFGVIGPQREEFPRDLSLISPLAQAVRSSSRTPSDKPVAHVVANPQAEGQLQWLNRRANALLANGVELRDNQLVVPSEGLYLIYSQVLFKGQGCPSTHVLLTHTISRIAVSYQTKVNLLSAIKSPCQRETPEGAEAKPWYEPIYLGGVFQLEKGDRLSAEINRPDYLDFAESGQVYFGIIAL
# Chain of Glyceraldehyde-3-phosphate dehydrogenase (P04406 whole entry): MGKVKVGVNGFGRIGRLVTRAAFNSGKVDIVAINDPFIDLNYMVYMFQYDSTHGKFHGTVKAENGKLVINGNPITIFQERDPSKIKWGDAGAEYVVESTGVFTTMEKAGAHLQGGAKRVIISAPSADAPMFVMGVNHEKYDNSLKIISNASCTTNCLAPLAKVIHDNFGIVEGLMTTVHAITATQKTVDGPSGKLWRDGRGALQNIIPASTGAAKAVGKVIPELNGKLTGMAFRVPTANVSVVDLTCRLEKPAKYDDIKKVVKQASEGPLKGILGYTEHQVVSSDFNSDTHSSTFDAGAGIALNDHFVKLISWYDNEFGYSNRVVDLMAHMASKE
smiles,measurement,setting,value
COc1cccc(-c2cc(C(F)(F)F)nc(S(C)(=O)=O)n2)c1,IC50,Bcl-2-related protein A1 [1],6.78 µM (active)
same,IC50,[2],> 100 µM (not active)
same,IC50,Bcl-2-related protein A1 [3],2.24 µM (active)
Cc1ccc(OCc2ccoc2C(=O)O)cc1C,IC50,Estrogen receptor,25.4 µM (active)
same,IC50,Estrogen receptor beta [4],< 0.023 µM (not active)
same,IC50,Estrogen receptor beta [5],5.86 µM (active)
COc1ccccc1N1CCN(C(=O)CCNS(=O)(=O)c2ccc(Br)s2)CC1,EC50,[6],> 120 µM (not active)
Cc1cccc(Nc2nc(N)nc(CCl)n2)c1C,EC50,HEK293 [7],10.8 µM (active)
same,EC50,BJ [8],2.19 µM (inconclusive)
same,IC50,[9],4.04 µM (active)
same,IC50,HEK293 [10],> 20 µM (inactive)
same,IC50,HEK293 [11],> 20 µM (inactive)
same,IC50,HEK293 [12],9.12 µM (active)
same,IC50,Tumor necrosis factor,9.45 µM (active)
same,CC50,Vero,2.11 µM (active)
same,EC50,BJ [13],> 75 µM (inconclusive)
same,EC50,[14],0.65 µM (active)
same,IC50,HEK293 [15],9.47 µM (active)
same,IC50,[16],0.628 µM (active)
same,EC50,BJ [17],2.02 µM (active)
same,EC50,BJ [18],6.44 µM (active)
COC(=O)NC(/C(C(=O)OC)=C(\C)NCc1ccccc1)c1cccc(F)c1 (stereo not drawn),AC50,Cytochrome P450 2C19,7.94 µM (inconclusive)
same,AC50,Cytochrome P450 2D6,5.01 µM (inconclusive)
